Results as given in patent US20240246931A1, “COMPOUNDS AS PD1/PD-L1 INHIBITORS AND METHODS THEREOF” (JUBILANT PRODEL LLC, priority 2021, published 2024).

Each compound was assayed against T1, PD-1/PD-L1 interaction (Homo sapiens, UniProt Q9NZQ7) (assay: PD-1/PD-L1 HTRF binding assay (CisBio kit)). Conditions: HTRF PD1/PD-L1 inhibition assay.
T1 construct: purchased CisBio 63ADK000CPAPEG
Experimental: PD-L1 Enzyme Assay: Homogenous Time-Resolved Fluorescence (HTRF) Binding Assay
All binding studies were performed using PD-1/PD-L1 Binding Assay Kit from CisBio (Catalog #63ADK000CPAPEG), according to the manufacturer's protocol. The interaction between Tag1-PD-1 and […] was detected by anti-Tag1-Eu^3+ (HTRF donor) and anti-Tag2-XL665 (HTRF acceptor). When the donor and acceptor antibodies were brought to close proximity due to PD-1 and PD-L1 binding, excitation of the donor antibody triggered fluorescent resonance energy transfer (FRET) towards the acceptor antibody, which in turn emitted specifically at 665 nm. This specific signal is positively proportional to PD-1/PD-L1 interaction. The compounds blocking PD-1/PD-L1 interaction will cause a reduction in HTRF signal. The necessary reagents were mixed in the following order: 2 μL compounds (or diluents buffer), 4 μL PD-L1 protein, 4 μL PD-1 protein. After an incubation of 15 minutes, 5 μL of anti-Tag1-Eu^3+ and 5 μL of anti-Tag2-XL665 were added. The plate was sealed and incubated at room temperature for 1 h. The fluorescence emission was read at two different wavelengths (665 nm and 620 nm) on a BMG PheraStar® multi-plate reader.
Results were calculated from the 665 nm and 620 nm fluorescence signal and expressed in HTRF ratio=(665 nm/620 nm)×10^4.
Compounds having IC50<100 nM are designated as “A”; 100-500 nM are designated as “B”; and >500 nM are designated as “C” respectively.

T1 sequence (Q9NZQ7 19-238 limits assumed): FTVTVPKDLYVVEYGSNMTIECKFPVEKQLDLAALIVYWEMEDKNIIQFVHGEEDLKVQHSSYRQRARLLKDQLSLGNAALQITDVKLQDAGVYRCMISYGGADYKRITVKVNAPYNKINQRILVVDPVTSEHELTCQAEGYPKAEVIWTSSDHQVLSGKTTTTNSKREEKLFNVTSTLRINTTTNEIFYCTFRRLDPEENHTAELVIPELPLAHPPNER

SMILES	IC50 [nM]
Cc1c(COc2cc(OCc3cncc(C#N)c3)c(CN3CC(F)(F)CCC3CO)c3c2CCC3)cccc1-c1ccccc1 (centres unmarked) [Example 12, 5-(((4-((5,5-difluoro-2-(hydroxymethyl)piperidin-1-yl)methyl)-7-((2-methyl-[1,1′-biphenyl]-3-yl)methoxy)-2,3-dihydro-1H-inden-5-yl)oxy)methyl)nicotinonitrile]	100 to 500
Cc1c(COc2cc(OCc3cncc(C#N)c3)c(CN3CCN(C)CC3CO)c3c2CCC3)cccc1-c1ccccc1 (centres unmarked) [Example 13, 5-(((4-((2-(hydroxymethyl)-4-methylpiperazin-1-yl)methyl)-7-((2-methyl-[1,1′-biphenyl]-3-yl)methoxy)-2,3-dihydro-1H-inden-5-yl)oxy)methyl)nicotinonitrile]	< 100
Cc1c(COc2cc(OCc3cncc(C#N)c3)c(CN3CC(CO)C3)c3c2CCC3)cccc1-c1ccccc1 [Example 14, 5-(((4-((3-(hydroxymethyl)azetidin-1-yl)methyl)-7-((2-methyl-[1,1′-biphenyl]-3-yl)methoxy)-2,3-dihydro-1H-inden-5-yl)oxy)methyl)nicotinonitrile]	< 100
Cc1c(COc2cc(OCc3cncc(C#N)c3)c(CN3CC[C@@H](CO)C3)c3c2CCC3)cccc1-c1ccccc1 [Example 15, (R)-5-(((4-((3-(hydroxymethyl)pyrrolidin-1-yl)methyl)-7-((2-methyl-[1,1′-biphenyl]-3-yl)methoxy)-2,3-dihydro-1H-inden-5-yl)oxy)methyl)nicotinonitrile]	< 100
Cc1c(COc2cc(OCc3cncc(C#N)c3)c(CN3CCC[C@H](CO)C3)c3c2CCC3)cccc1-c1ccccc1 [Example 16, (S)-5-(((4-((3-(hydroxymethyl)piperidin-1-yl)methyl)-7-((2-methyl-[1,1′-biphenyl]-3-yl)methoxy)-2,3-dihydro-1H-inden-5-yl)oxy)methyl)nicotinonitrile]	< 100
Cc1c(COc2cc(OCc3cncc(C#N)c3)c(CN3CCC(CO)CC3)c3c2CCC3)cccc1-c1ccccc1 [Example 17, 5-(((4-((4-(hydroxymethyl)piperidin-1-yl)methyl)-7-((2-methyl-[1,1′-biphenyl]-3-yl)methoxy)-2,3-dihydro-1H-inden-5-yl)oxy)methyl)nicotinonitrile]	< 100
Cc1c(COc2cc(OCc3cncc(C#N)c3)c(CN3CC[C@H](CO)C3)c3c2CCC3)cccc1-c1ccccc1 [Example 18, (S)-5-(((4-((3-(hydroxymethyl)pyrrolidin-1-yl)methyl)-7-((2-methyl-[1,1′-biphenyl]-3-yl)methoxy)-2,3-dihydro-1H-inden-5-yl)oxy)methyl)nicotinonitrile]	< 100
Cc1c(COc2cc(OCc3cncc(C#N)c3)c(CN3CCC[C@@H]3CO)c3c2CCC3)cccc1-c1ccccc1 [Example 19, (R)-5-(((4-((2-(hydroxymethyl)pyrrolidin-1-yl)methyl)-7-((2-methyl-[1,1′-biphenyl]-3-yl)methoxy)-2,3-dihydro-1H-inden-5-yl)oxy)methyl)nicotinonitrile]	< 100
Cc1c(COc2cc(OCc3cncc(C#N)c3)c(CN3CCCCCC3CO)c3c2CCC3)cccc1-c1ccccc1 (centres unmarked) [Example 20, 5-(((4-((2-(hydroxymethyl)azepan-1-yl)methyl)-7-((2-methyl-[1,1′-biphenyl]-3-yl)methoxy)-2,3-dihydro-1H-inden-5-yl)oxy)methyl)nicotinonitrile]	< 100
Cc1c(COc2cc(OCc3cncc(C#N)c3)c(CN3CCC[C@@H](CO)C3)c3c2CCC3)cccc1-c1ccccc1 [Example 21, (R)-5-(((4-((3-(hydroxymethyl)piperidin-1-yl)methyl)-7-((2-methyl-[1,1′-biphenyl]-3-yl)methoxy)-2,3-dihydro-1H-inden-5-yl)oxy)methyl)nicotinonitrile 2,2,2-trifluoroacetate]	< 100
Cc1c(COc2cc(OCc3cncc(C#N)c3)c(CN3CCCCC3(CO)CO)c3c2CCC3)cccc1-c1ccccc1 [Example 22, 5-(((4-((2,2-bis(hydroxymethyl)piperidin-1-yl)methyl)-7-((2-methyl-[1,1′-biphenyl]-3-yl)methoxy)-2,3-dihydro-1H-inden-5-yl)oxy)methyl)nicotinonitrile 2,2,2-trifluoroacetate]	< 100
Cc1c(COc2cc(OCCCCF)c(CN3CC[C@H]3CO)c3c2CCC3)cccc1-c1ccccc1 [Example 33, (S)-(1-((5-(4-fluorobutoxy)-7-((2-methyl-[1,1′-biphenyl]-3-yl)methoxy)-2,3-dihydro-1H-inden-4-yl)methyl)azetidin-2-yl)methanol]	100 to 500
N#Cc1cccc(COc2cc(OCc3cccc(-c4ccccc4)c3C#N)c3c(c2CN2CCCC4CC42CO)CCC3)c1 (centres unmarked) [Example 36, 3-(((6-((3-cyanobenzyl)oxy)-7-((1-(hydroxymethyl)-2-azabicyclo[4.1.0]heptan-2-yl)methyl)-2,3-dihydro-1H-inden-4-yl)oxy)methyl)-[1,1′-biphenyl]-2-carbonitrile]	100 to 500
Cc1c(COc2cc(OCc3cnn(C)c3)c(CN3CCCC[C@H]3CO)c3c2CCC3)cccc1-c1ccccc1 [Example 39, (S)-(1-((5-((1-methyl-1H-pyrazol-4-yl)methoxy)-7-((2-methyl-[1,1′-biphenyl]-3-yl)methoxy)-2,3-dihydro-1H-inden-4-yl)methyl)piperidin-2-yl)methanol]	100 to 500

Other lines, results leading:

IC50 [nM]	SMILES
100 to 500	Cc1c(COc2cc(OCc3cscn3)c(CN3CCC3CO)c3c2CCC3)cccc1-c1ccccc1 (centres unmarked) [Example 40, (1-((7-((2-methyl-[1,1′-biphenyl]-3-yl)methoxy)-5-(thiazol-4-ylmethoxy)-2,3-dihydro-1H-inden-4-yl)methyl)azetidin-2-yl)methanol]
100 to 500	Cc1c(COc2cc(OCc3cn(C)cn3)c(CN3CCC3CO)c3c2CCC3)cccc1-c1ccccc1 (centres unmarked) [Example 41, (1-((5-((1-methyl-1H-imidazol-4-yl)methoxy)-7-((2-methyl-[1,1′-biphenyl]-3-yl)methoxy)-2,3-dihydro-1H-inden-4-yl)methyl)azetidin-2-yl)methanol]
< 100	Cc1c(COc2cc(OCc3cncnc3)c(CN3CCC3CO)c3c2CCC3)cccc1-c1ccccc1 (centres unmarked) [Example 42, (1-((7-((2-methyl-[1,1′-biphenyl]-3-yl)methoxy)-5-(pyrimidin-5-ylmethoxy)-2,3-dihydro-1H-inden-4-yl)methyl)azetidin-2-yl)methanol]
100 to 500	Cc1c(COc2cc(OCc3cocn3)c(CN3CCC3CO)c3c2CCC3)cccc1-c1ccccc1 (centres unmarked) [Example 43, (1-((7-((2-methyl-[1,1′-biphenyl]-3-yl)methoxy)-5-(oxazol-4-ylmethoxy)-2,3-dihydro-1H-inden-4-yl)methyl)azetidin-2-yl)methanol]
< 100	Cc1c(COc2cc(OCc3cc(C#N)c[n+]([O-])c3)c(CN3CCCC[C@H]3CO)c3c2CCC3)cccc1-c1ccccc1 [Example 45, (S)-3-cyano-5-(((4-((2-(hydroxymethyl)piperidin-1-yl)methyl)-7-((2-methyl-[1,1′-biphenyl]-3-yl)methoxy)-2,3-dihydro-1H-inden-5-yl)oxy)methyl)pyridine 1-oxide]
100 to 500	Cc1c(COc2cc(OCc3cncc(C#N)c3)c(CN3CCCC[C@H]3CO)c3c2CCC3)cccc1-c1ccc(F)cc1 [Example 46, (S)-5-(((7-((4′-fluoro-2-methyl-[1,1′-biphenyl]-3-yl)methoxy)-4-((2-(hydroxymethyl)piperidin-1-yl)methyl)-2,3-dihydro-1H-inden-5-yl)oxy)methyl)nicotinonitrile]
